What was measured:
Assay in all cases: relative viability (nuclei count vs DMSO), 5 days (fraction); higher = more cells survive
Calu-6 = system: Calu-6
Method in brief: (§1)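 Medians of duplicate plates are given as relative viability. That measure is the nuclei count in treated wells divided by the count in vehicle wells. Counts were taken on 4× images of lung cancer cell lines in 1536-well plates, 5 days after pin-tool dosing the day after seeding with one drug alone or a fixed anchor-drug dose plus five library-drug doses (not always all listed) in √10 steps.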

SW 1573 = system: SW 1573
Method in brief: as §1

ChaGo-K-1 = system: ChaGo-K-1
Method in brief: as §1

NCI-H1651 = system: NCI-H1651
Method in brief: as §1

A549 = system: A549
Method in brief: as §1

SK-MES-1 = system: SK-MES-1
Method in brief: as §1

NCI-H1703 = system: NCI-H1703
Method in brief: as §1

COR-L23 = system: COR-L23
Method in brief: as §1

NCI-H1299 = system: NCI-H1299
Method in brief: as §1

IA-LM = system: IA-LM
Method in brief: as §1

NCI-H1437 = system: NCI-H1437
Method in brief: as §1

EBC-1 = system: EBC-1
Method in brief: as §1

ABC-1 = system: ABC-1
Method in brief: as §1

SMILES: CC(=O)O[C@@]12CO[C@@H]1C[C@H](O)[C@@]1(C)C(=O)[C@H](O)C3=C(C)[C@@H](OC(=O)[C@H](O)[C@@H](NC(=O)OC(C)(C)C)c4ccccc4)C[C@@](O)([C@@H](OC(=O)c4ccccc4)[C@H]21)C3(C)C [Docetaxel] + CC1(C)CCC(c2ccc(Cl)cc2)=C(CN2CCN(c3ccc(C(=O)NS(=O)(=O)c4ccc(N[C@H](CCN5CCOCC5)CSc5ccccc5)c(S(=O)(=O)C(F)(F)F)c4)cc3)CC2)C1 [Navitoclax] (partner 0.5 µM)
- relative viability (Calu-6; first compound 0.0002 µM): 1.02
- relative viability (Calu-6; first compound 0.000632 µM): 0.707
- relative viability (Calu-6; first compound 0.002 µM): 0.111
- relative viability (Calu-6; first compound 0.006325 µM): 0.0836
- relative viability (Calu-6; first compound 0.02 µM): 0.0609
- relative viability (SW 1573; first compound 0.0002 µM): 1.06
- relative viability (SW 1573; first compound 0.000632 µM): 0.204
- relative viability (SW 1573; first compound 0.002 µM): 0.15
- relative viability (SW 1573; first compound 0.006325 µM): 0.0763
- relative viability (SW 1573; first compound 0.02 µM): 0.0456
- relative viability (ChaGo-K-1; first compound 0.0002 µM): 1.02
- relative viability (ChaGo-K-1; first compound 0.000632 µM): 0.597
- relative viability (ChaGo-K-1; first compound 0.002 µM): 0.485
- relative viability (ChaGo-K-1; first compound 0.006325 µM): 0.429
- relative viability (ChaGo-K-1; first compound 0.02 µM): 0.232
- relative viability (NCI-H1651; first compound 0.0002 µM): 1.18
- relative viability (NCI-H1651; first compound 0.000632 µM): 0.968
- relative viability (NCI-H1651; first compound 0.002 µM): 0.233
- relative viability (NCI-H1651; first compound 0.006325 µM): 0.0921
- relative viability (NCI-H1651; first compound 0.02 µM): 0.0627
- relative viability (A549; first compound 0.0002 µM): 0.985
- relative viability (A549; first compound 0.000632 µM): 0.245
- relative viability (A549; first compound 0.002 µM): 0.055
- relative viability (A549; first compound 0.006325 µM): 0.0522
- relative viability (A549; first compound 0.02 µM): 0.0365
- relative viability (SK-MES-1; first compound 0.0002 µM): 1.19
- relative viability (SK-MES-1; first compound 0.000632 µM): 0.692
- relative viability (SK-MES-1; first compound 0.002 µM): 0.251
- relative viability (SK-MES-1; first compound 0.006325 µM): 0.122
- relative viability (SK-MES-1; first compound 0.02 µM): 0.108
- relative viability (NCI-H1703; first compound 0.0002 µM): 1.07
- relative viability (NCI-H1703; first compound 0.000632 µM): 0.551
- relative viability (NCI-H1703; first compound 0.006325 µM): 0.129
- relative viability (NCI-H1703; first compound 0.02 µM): 0.108
- relative viability (COR-L23; first compound 0.0002 µM): 0.899
- relative viability (COR-L23; first compound 0.000632 µM): 0.939
- relative viability (COR-L23; first compound 0.002 µM): 0.373
- relative viability (COR-L23; first compound 0.006325 µM): 0.0756
- relative viability (COR-L23; first compound 0.02 µM): 0.0656
- relative viability (NCI-H1299; first compound 0.0002 µM): 1.05
- relative viability (NCI-H1299; first compound 0.000632 µM): 1.03
- relative viability (NCI-H1299; first compound 0.002 µM): 0.938
- relative viability (NCI-H1299; first compound 0.006325 µM): 0.526
- relative viability (NCI-H1299; first compound 0.02 µM): 0.351
- relative viability (IA-LM; first compound 0.0002 µM): 0.506
- relative viability (IA-LM; first compound 0.000632 µM): 0.172
- relative viability (IA-LM; first compound 0.002 µM): 0.0734
- relative viability (IA-LM; first compound 0.006325 µM): 0.0267
- relative viability (IA-LM; first compound 0.02 µM): 0.024
- relative viability (NCI-H1437; first compound 0.0002 µM): 1.02
- relative viability (NCI-H1437; first compound 0.000632 µM): 0.644
- relative viability (NCI-H1437; first compound 0.002 µM): 0.182
- relative viability (NCI-H1437; first compound 0.02 µM): 0.104
- relative viability (EBC-1; first compound 0.0002 µM): 0.259
- relative viability (EBC-1; first compound 0.000632 µM): 0.27
- relative viability (EBC-1; first compound 0.002 µM): 0.152
- relative viability (EBC-1; first compound 0.006325 µM): 0.206
- relative viability (EBC-1; first compound 0.02 µM): 0.124

SMILES: Cc1sc2c(c1C)C(c1ccc(Cl)cc1)=N[C@@H](CC(=O)OC(C)(C)C)c1nnc(C)n1-2 [JQ1] + CS(=O)(=O)CCNCc1ccc(-c2ccc3ncnc(Nc4ccc(OCc5cccc(F)c5)c(Cl)c4)c3c2)o1 [Lapatinib] (partner 2 µM)
- relative viability (Calu-6; first compound 0.04 µM): 1.11
- relative viability (Calu-6; first compound 0.1265 µM): 0.9
- relative viability (Calu-6; first compound 0.4 µM): 0.999
- relative viability (Calu-6; first compound 1.265 µM): 0.598
- relative viability (Calu-6; first compound 4 µM): 0.564
- relative viability (SW 1573; first compound 0.04 µM): 1.13
- relative viability (SW 1573; first compound 0.1265 µM): 0.886
- relative viability (SW 1573; first compound 0.4 µM): 0.881
- relative viability (SW 1573; first compound 1.265 µM): 0.61
- relative viability (SW 1573; first compound 4 µM): 0.512
- relative viability (NCI-H1651; first compound 0.04 µM): 0.656
- relative viability (NCI-H1651; first compound 0.1265 µM): 0.706
- relative viability (NCI-H1651; first compound 0.4 µM): 0.481
- relative viability (NCI-H1651; first compound 1.265 µM): 0.365
- relative viability (NCI-H1651; first compound 4 µM): 0.408
- relative viability (A549; first compound 0.04 µM): 0.923
- relative viability (A549; first compound 0.1265 µM): 0.902
- relative viability (A549; first compound 0.4 µM): 1.04
- relative viability (A549; first compound 1.265 µM): 0.553
- relative viability (A549; first compound 4 µM): 0.358
- relative viability (SK-MES-1; first compound 0.04 µM): 0.455
- relative viability (SK-MES-1; first compound 0.1265 µM): 0.436
- relative viability (SK-MES-1; first compound 0.4 µM): 0.361
- relative viability (SK-MES-1; first compound 1.265 µM): 0.292
- relative viability (SK-MES-1; first compound 4 µM): 0.274
- relative viability (NCI-H1703; first compound 0.04 µM): 1.07
- relative viability (NCI-H1703; first compound 0.1265 µM): 0.764
- relative viability (NCI-H1703; first compound 0.4 µM): 1.2
- relative viability (NCI-H1703; first compound 1.265 µM): 0.47
- relative viability (NCI-H1703; first compound 4 µM): 0.432
- relative viability (COR-L23; first compound 0.04 µM): 0.926
- relative viability (COR-L23; first compound 0.1265 µM): 0.782
- relative viability (COR-L23; first compound 0.4 µM): 0.942
- relative viability (COR-L23; first compound 1.265 µM): 0.773
- relative viability (COR-L23; first compound 4 µM): 0.623
- relative viability (NCI-H1299; first compound 0.04 µM): 0.975
- relative viability (NCI-H1299; first compound 0.1265 µM): 0.802
- relative viability (NCI-H1299; first compound 0.4 µM): 0.837
- relative viability (NCI-H1299; first compound 1.265 µM): 0.391
- relative viability (NCI-H1299; first compound 4 µM): 0.316
- relative viability (ABC-1; first compound 0.04 µM): 1.11
- relative viability (ABC-1; first compound 0.1265 µM): 0.82
- relative viability (ABC-1; first compound 0.4 µM): 1.04
- relative viability (ABC-1; first compound 1.265 µM): 0.992
- relative viability (ABC-1; first compound 4 µM): 0.727
- relative viability (IA-LM; first compound 0.04 µM): 0.63
- relative viability (IA-LM; first compound 0.1265 µM): 0.32
- relative viability (IA-LM; first compound 0.4 µM): 0.123
- relative viability (IA-LM; first compound 1.265 µM): 0.0937
- relative viability (IA-LM; first compound 4 µM): 0.116
- relative viability (NCI-H1437; first compound 0.04 µM): 0.72
- relative viability (NCI-H1437; first compound 0.1265 µM): 0.463
- relative viability (NCI-H1437; first compound 0.4 µM): 0.403
- relative viability (NCI-H1437; first compound 1.265 µM): 0.194
- relative viability (NCI-H1437; first compound 4 µM): 0.216
- relative viability (EBC-1; first compound 0.04 µM): 0.205
- relative viability (EBC-1; first compound 0.1265 µM): 0.208
- relative viability (EBC-1; first compound 0.4 µM): 0.172
- relative viability (EBC-1; first compound 1.265 µM): 0.152
- relative viability (EBC-1; first compound 4 µM): 0.148

From the supplement of paper PMC10307832
